Laboratory results: patent US9241488B2, “Azole derivative, method for producing azole derivative, and intermediate compound” (KUREHA CORPORATION, priority 2011, dated 2016)

What was measured:
[1] = tested on: G.g; assay: Anti-bacterial effect of V′ compounds on various microorganisms (plate medium), G.g; assay type: cell-based; settings: 5 mg/L
[2] = tested on: Wheat Septoria nodorum blotch microorganism (Phaeosphaeria nodorum); assay: Anti-bacterial effect of V′ compounds on various microorganisms (plate medium), P.n; assay type: cell-based; settings: 5 mg/L
[3] = tested on: Snow mold of winter wheat (Microdochium nivale); assay: Anti-bacterial effect of V′ compounds on various microorganisms (plate medium), M.n; assay type: cell-based; settings: 5 mg/L
[4] = tested on: Rice blast (Pyricularia oryzae); assay type: cell-based; settings: 5 mg/L
[5] = tested on: Barley stripe (Pyrenophora graminea); assay: Anti-bacterial effect of V′ compounds on various microorganisms (plate medium), P.g; assay type: cell-based; settings: 5 mg/L
[6] = tested on: Wheat leaf blight (Septoria tritici); assay: Anti-bacterial effect of V′ compounds on various microorganisms (plate medium), S.t; assay type: cell-based; settings: 5 mg/L
[7] = tested on: wheat brown rust-causing microorganisms; assay: Controlling effect on wheat brown rust caused by seed treatment (pot test); assay type: in vivo, Puccinia recondita; settings: 2 mg compound per 1 g wheat seeds, inoculated 21 days after seeding, evaluated 14 days after inoculation
Experimental: An efficacy against wheat brown rust was evaluated by performing a pot test. […] The pots were kept in a greenhouse with supplying water underneath. Twenty one days after the seeding, wheat brown rust-causing microorganisms was inoculated, and the pots were stored in a humidity chamber for 2 days. The pots were kept again in a greenhouse with supplying water underneath. Fourteen days after the inoculation, a lesion degree was evaluated, and a protective value was calculated. The protective value was calculated with use of the following formula, and was defined as a wheat brown rust protective value. Protective value=(1−lesion degree in treated plot/lesion degree in untreated plot)×100(%)

[8] = tested on: wheat-brown-rust-causing microorganisms; assay: Controlling effect on wheat brown rust (spray, pot test); assay type: in vivo, Puccinia recondita; settings: 1 mg/L sprayed at 1,000 L/ha, wheat NORIN No. 61, 9 to 14 days after inoculation
Method in brief: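 Two-leaf wheat (NORIN No. 61) sprayed with formulation at 1 mg/L, 1,000 L/ha, then spray-inoculated with rust spores and held 48 hours at 25° C, high humidity, then greenhouse.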

[9] = tested on: Barley leaf blotch (Rhynchosporium secalis); assay: Anti-bacterial effect of V′ compounds on various microorganisms (plate medium), R. sec; assay type: cell-based; settings: 5 mg/L
[10] = tested on: Swollen rice seedling (Rhizopus oryzae); assay: Anti-bacterial effect of V′ compounds on various microorganisms (plate medium), R.o; assay type: cell-based; settings: 5 mg/L
[11] = tested on: wheat leaf blight-causing microorganisms; assay: Anti-bacterial effect on wheat leaf blight-causing microorganisms (PDA plate, mycelial growth inhibition); assay type: cell-based, Septoria tritici; settings: 336 h; 1.25 mg/L in PDA plate medium, 25° C., 14 days; read-out: Growth inhibition grade
[12] = tested on: Wheat pink snow mold (Microdochium nivale); assay: Anti-bacterial effect on various microorganisms (plate medium), M.n; assay type: cell-based; settings: Microdochium nivale, read-out: Growth inhibition grade M.n
[13] = tested on: wheat; assay: Growth inhibition test for wheat caused by seed treatment (pot test); settings: 2 mg compound per 1 g wheat seeds, 36 days after seeding, larger index = smaller damage
Experimental: Harmful effect (growth inhibition) to wheat was evaluated by performing a pot test. Compounds (2 mg) of the present invention and a comparative compound (2 mg) were weighed, and those compounds were each dissolved in DMSO (18 μl). Chemical thus prepared were applied to wheat seeds (1 g) in a vial, and eight wheat seeds were seeded in a pot of 80 cm^2. The seeds were cultivated in a greenhouse with supplying water underneath. 36 days after the seeding, damage (growth inhibition) was evaluated.
The damage (growth inhibition) index was calculated on the basis of the following table. As the growth inhibition index becomes larger, the damage of growth inhibition caused by the treatment of the chemicals becomes smaller.

[14] = tested on: wheat; assay: Harmful effect of necrosis to wheat caused by seed treatment (pot test); assay type: in vivo; settings: 2 mg compound per 1 g wheat seeds, 31 days after seeding, smaller index = smaller harmful effect
Experimental: Thirty one days after the seeding, a degree of necrosis (necrosis area ratio) in wheat was evaluated. By using criteria shown in Table 7, necrosis indexes were calculated on the basis of the necrosis area ratio.

[15] = tested on: Rice bacterial seeding blight (Rhizopus oryzae); assay: Anti-bacterial effect on various microorganisms (plate medium), R.o; assay type: cell-based; settings: Rhizopus arrhizus, read-out: Growth inhibition grade R.o

| SMILES | Anti-bacterial effect index against various microorganisms G.g [1] | Anti-bacterial effect index against various microorganisms P.n [2] | Anti-bacterial effect index against various microorganisms M.n [3] | Anti-bacterial effect index against various microorganisms P.o [4] | Anti-bacterial effect index against various microorganisms P.g [5] | Anti-bacterial effect index against various microorganisms S.t [6] | wheat brown rust protective value [7] | Protective value [8] | Anti-bacterial effect index against various microorganisms R. sec [9] | Anti-bacterial effect index against various microorganisms R.o [10] | inhibition at 1.25 µg/mL [11] | inhibition at 1.25 µg/mL ([12]; 1.25 mg/L) | inhibition at 5 µg/mL ([12]; 5 mg/L) | damage (growth inhibition) index [13] | necrosis index [14] | inhibition at 1.25 µg/mL ([15]; 1.25 mg/L) | inhibition at 5 µg/mL ([15]; 5 mg/L) |
| --- | --- | --- | --- | --- | --- | --- | --- | --- | --- | --- | --- | --- | --- | --- | --- | --- | --- |
| OC1(Cn2cncn2)C(Cc2ccc(Cl)cc2)CCC12COCOC2 (centres unmarked) [Compound V′-d, 2-(4-chlorobenzyl)-1-(1H-1,2,4-triazole-1-ylmethyl)-7,9-dioxaspiro[4,5]decane-1-ol] | 5 (% Mycerial growth inhibition of 80% or higher) | 5 (% Mycerial growth inhibition of 80% or higher) | 3 (% Mycerial growth inhibition of less than 60 to 40% or higher) | 5 (% Mycerial growth inhibition of 80% or higher) | 5 (% Mycerial growth inhibition of 80% or higher) | 4 (% Mycerial growth inhibition of less than 80 to 60% or higher) | 100% | 4 (61 to 80) | 5 (% Mycerial growth inhibition of 80% or higher) | 5 (% Mycerial growth inhibition of 80% or higher) | – | – | – | – | – | – | – |
| CC1OCC2(CCC(Cc3ccc(Cl)cc3)C2(O)Cn2cncn2)CO1 (centres unmarked) [Compound V′-e, 2-(4-chlorobenzyl)-8-methyl-1-(1H-1,2,4-triazole-1-ylmethyl)-7,9-dioxaspiro[4,5]decane-1-ol] | 5 (% Mycerial growth inhibition of 80% or higher) | 5 (% Mycerial growth inhibition of 80% or higher) | 5 (% Mycerial growth inhibition of 80% or higher) | 5 (% Mycerial growth inhibition of 80% or higher) | 5 (% Mycerial growth inhibition of 80% or higher) | 5 (% Mycerial growth inhibition of 80% or higher) | 100% | – | 5 (% Mycerial growth inhibition of 80% or higher) | 5 (% Mycerial growth inhibition of 80% or higher) | > 80% | – | – | – | – | – | – |
| CC1(C)CC[C@H](Cc2ccc(Cl)cc2)[C@@]1(O)Cn1cncn1 (racemic) [Compound (1), reference compound] | – | – | – | – | – | – | 95% | 3 (41 to 60) | – | – | 60 to 80% | 20 to 40% | > 80% | 2 (Less than 60% but 40% or more) | 1 (1% or more but less than 5%) | 60 to 80% | > 80% |
